# Data taken from article PMC9307952, “Lipoate protein ligase B primarily recognizes the C8-phosphopantetheine arm of its donor substrate and weakly binds the acyl carrier protein” (The Journal of Biological Chemistry, 2022).
# Assays:
# [1] = target: MmLipT2 (mice LipT2) (Mus musculus, UniProt Q9D009); details: 75 μM C8-CoA, 25 μM GcvH, 50 mM Tris-HCl, 500 mM NaCl, pH 8.0, 37 °C
# [2] = target: E. coli LipB (EcLipB) (Escherichia coli, UniProt P60720); details: CoA:LipB 10:1 (STD, 283 K) or 8:1 (31P, 298 K), 50 mM Tris, 200 mM NaCl, pH 7.8
# E. coli LipB (EcLipB), sequence (P60720 whole entry): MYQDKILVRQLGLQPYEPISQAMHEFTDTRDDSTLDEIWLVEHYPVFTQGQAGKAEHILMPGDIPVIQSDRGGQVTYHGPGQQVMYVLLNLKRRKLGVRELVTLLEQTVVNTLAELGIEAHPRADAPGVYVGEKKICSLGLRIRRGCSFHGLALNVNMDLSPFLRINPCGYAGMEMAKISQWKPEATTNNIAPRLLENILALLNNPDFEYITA
# MmLipT2 (mice LipT2), sequence (Q9D009 whole entry): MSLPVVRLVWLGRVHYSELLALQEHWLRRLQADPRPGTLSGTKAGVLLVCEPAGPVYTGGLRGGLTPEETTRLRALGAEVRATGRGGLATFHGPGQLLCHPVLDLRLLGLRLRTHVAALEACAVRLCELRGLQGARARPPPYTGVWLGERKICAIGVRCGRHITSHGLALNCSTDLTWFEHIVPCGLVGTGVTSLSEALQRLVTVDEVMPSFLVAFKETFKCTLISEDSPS
smiles,measurement,setting,value
CCCCCCCC(=O)SCCNC(=O)CCNC(=O)[C@H](O)C(C)(C)COP(=O)(O)OP(=O)(O)OC[C@H]1O[C@@H](n2cnc3c(N)ncnc32)[C@H](O)[C@@H]1OP(=O)(O)O [C8-CoA],"octanoyl transfer to E. coli GcvH, SDS-PAGE band shift and HPLC",[1],MmLipT2 also successfully converted E. coli GcvH using C8-CoA as a donor substrate
CC(C)(COP(=O)(O)OP(=O)(O)OC[C@H]1O[C@@H](n2cnc3c(N)ncnc32)[C@H](O)[C@@H]1OP(=O)(O)O)[C@@H](O)C(=O)NCCC(=O)NCCS [CoA],1H STD NMR; 31P NMR,[2],suggesting binding of the adenosine ring
